Experimental data from publication PMC7026418, “The kinase polypharmacology landscape of clinical PARP inhibitors” (Scientific Reports, 2020).
Where two headings read alike, the source gives them in different places. Each block holds one compound with its values, some of them ahead of it.

Tests used:
Test in all cases: biochemical
Design in all cases: DiscoveRx KINOMEscan active site-directed competition binding; percent of control kinase bound to immobilised ligand
[1] = target: EGFR(S752-I759del) (Homo sapiens, UniProt P00533, DEL752-759)
[2] = target: T1, MARK4 (Homo sapiens, UniProt Q96L34)
T1 sequence (Q96L34 1-752): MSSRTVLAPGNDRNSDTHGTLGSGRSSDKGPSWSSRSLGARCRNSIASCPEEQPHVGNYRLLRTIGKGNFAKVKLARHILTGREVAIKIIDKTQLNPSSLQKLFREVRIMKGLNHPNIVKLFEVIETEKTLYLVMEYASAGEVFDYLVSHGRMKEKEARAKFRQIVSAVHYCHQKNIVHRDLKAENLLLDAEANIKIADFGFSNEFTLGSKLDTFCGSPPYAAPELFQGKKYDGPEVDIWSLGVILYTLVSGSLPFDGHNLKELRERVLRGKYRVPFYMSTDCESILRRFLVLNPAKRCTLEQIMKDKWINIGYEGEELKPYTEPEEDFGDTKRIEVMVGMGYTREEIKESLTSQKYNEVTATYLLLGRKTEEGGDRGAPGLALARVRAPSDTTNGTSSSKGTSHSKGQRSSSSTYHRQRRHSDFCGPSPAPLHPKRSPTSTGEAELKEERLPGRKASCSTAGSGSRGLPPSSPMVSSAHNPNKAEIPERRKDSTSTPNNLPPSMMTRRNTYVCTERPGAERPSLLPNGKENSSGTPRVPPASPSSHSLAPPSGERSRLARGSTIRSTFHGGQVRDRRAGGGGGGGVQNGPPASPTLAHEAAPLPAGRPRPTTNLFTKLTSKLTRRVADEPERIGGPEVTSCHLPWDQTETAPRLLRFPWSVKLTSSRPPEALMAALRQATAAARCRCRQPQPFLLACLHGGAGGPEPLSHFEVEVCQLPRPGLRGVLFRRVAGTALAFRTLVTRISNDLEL

[3] = target: TESK1 (Homo sapiens, UniProt Q15569)
[4] = target: PAK6 (Homo sapiens, UniProt Q9NQU5)
[5] = target: SLK (Homo sapiens, UniProt Q9H2G2)
[6] = target: T2, JNK2 (Homo sapiens, UniProt P45984)
T2 construct: gene MAPK9

[7] = target: T3, TYK2(JH2domain-pseudokinase) (Homo sapiens, UniProt P29597)
T3 construct: JH2domain-pseudokinase

[8] = target: T4, PKAC-alpha (Homo sapiens, UniProt P17612)
T4 construct: gene PRKACA

[9] = target: T5, ABL1(T315I)-phosphorylated (Homo sapiens, UniProt P00519, T315I)
T5 construct: phosphorylated

[10] = target: T6, TXK (Homo sapiens, UniProt P42681)
T6 sequence (P42681 1-527): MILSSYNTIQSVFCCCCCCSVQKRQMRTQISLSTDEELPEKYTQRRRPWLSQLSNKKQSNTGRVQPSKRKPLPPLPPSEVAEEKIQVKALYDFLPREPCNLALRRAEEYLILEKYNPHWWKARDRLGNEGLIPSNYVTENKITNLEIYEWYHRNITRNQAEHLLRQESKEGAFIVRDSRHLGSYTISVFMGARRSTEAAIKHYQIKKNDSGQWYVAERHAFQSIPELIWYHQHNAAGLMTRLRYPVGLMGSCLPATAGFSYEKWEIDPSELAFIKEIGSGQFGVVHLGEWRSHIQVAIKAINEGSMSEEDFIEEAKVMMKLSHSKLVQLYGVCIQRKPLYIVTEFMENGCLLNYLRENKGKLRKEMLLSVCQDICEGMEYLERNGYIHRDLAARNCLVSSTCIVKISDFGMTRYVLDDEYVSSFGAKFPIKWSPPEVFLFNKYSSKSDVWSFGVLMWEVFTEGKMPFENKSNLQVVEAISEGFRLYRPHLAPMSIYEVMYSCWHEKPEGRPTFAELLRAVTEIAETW

[11] = target: T7, JAK1(JH2domain-pseudokinase) (Homo sapiens, UniProt P23458)
T7 construct: JH2domain-pseudokinase

[12] = read-out: Niraparib (MK-4827) / %Ctrl @ 10000nM
[13] = read-out: Rucaparib / %Ctrl @ 10000nM, binding competition, % of control
[14] = read-out: Olaparib / %Ctrl @ 10000nM
[15] = read-out: Talazoparib (BMN 673) / %Ctrl @ 10000nM

T2 sequence (P45984 whole entry): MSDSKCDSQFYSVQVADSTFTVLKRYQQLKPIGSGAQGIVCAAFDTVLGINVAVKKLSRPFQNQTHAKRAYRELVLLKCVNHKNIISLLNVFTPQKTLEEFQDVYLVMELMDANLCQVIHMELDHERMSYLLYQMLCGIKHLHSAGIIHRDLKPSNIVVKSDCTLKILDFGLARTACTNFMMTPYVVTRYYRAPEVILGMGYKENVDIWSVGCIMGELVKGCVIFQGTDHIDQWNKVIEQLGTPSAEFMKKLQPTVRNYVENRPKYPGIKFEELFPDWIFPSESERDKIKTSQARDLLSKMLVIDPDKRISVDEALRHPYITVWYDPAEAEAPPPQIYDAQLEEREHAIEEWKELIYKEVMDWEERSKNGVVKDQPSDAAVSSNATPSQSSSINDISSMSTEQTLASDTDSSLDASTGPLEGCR
Chain of EGFR(S752-I759del) (P00533 with tags, fused parts or gaps DEL752-759): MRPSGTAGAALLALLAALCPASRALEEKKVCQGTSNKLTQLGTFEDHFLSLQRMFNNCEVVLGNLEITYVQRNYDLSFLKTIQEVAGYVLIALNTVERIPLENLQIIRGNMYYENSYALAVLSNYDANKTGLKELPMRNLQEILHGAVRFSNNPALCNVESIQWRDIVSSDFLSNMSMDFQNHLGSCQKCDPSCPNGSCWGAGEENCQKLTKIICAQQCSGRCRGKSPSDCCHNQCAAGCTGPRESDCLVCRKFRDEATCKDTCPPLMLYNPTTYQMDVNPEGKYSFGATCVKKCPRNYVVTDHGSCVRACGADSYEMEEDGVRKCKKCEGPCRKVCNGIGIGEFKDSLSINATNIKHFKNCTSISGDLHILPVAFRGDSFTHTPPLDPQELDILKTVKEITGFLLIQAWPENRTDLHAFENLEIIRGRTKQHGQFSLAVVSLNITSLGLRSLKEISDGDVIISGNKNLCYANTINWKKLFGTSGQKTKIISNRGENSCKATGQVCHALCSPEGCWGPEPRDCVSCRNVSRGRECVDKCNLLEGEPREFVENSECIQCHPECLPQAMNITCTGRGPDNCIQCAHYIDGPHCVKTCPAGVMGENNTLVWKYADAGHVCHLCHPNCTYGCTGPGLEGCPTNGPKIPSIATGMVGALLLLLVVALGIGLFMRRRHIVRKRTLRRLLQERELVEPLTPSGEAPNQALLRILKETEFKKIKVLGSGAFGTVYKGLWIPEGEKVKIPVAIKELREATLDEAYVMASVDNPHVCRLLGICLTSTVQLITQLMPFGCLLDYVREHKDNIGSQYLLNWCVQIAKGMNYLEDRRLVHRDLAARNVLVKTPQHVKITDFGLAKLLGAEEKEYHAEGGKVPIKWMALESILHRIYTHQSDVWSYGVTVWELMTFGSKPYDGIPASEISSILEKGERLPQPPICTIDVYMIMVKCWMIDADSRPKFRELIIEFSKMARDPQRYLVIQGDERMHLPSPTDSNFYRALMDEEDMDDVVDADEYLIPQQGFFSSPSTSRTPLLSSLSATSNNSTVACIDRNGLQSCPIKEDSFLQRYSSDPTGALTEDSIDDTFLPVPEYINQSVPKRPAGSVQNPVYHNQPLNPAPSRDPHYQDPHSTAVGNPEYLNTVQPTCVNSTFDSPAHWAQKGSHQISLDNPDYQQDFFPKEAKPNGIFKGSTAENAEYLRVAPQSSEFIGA
Chain of PAK6 (Q9NQU5 whole entry): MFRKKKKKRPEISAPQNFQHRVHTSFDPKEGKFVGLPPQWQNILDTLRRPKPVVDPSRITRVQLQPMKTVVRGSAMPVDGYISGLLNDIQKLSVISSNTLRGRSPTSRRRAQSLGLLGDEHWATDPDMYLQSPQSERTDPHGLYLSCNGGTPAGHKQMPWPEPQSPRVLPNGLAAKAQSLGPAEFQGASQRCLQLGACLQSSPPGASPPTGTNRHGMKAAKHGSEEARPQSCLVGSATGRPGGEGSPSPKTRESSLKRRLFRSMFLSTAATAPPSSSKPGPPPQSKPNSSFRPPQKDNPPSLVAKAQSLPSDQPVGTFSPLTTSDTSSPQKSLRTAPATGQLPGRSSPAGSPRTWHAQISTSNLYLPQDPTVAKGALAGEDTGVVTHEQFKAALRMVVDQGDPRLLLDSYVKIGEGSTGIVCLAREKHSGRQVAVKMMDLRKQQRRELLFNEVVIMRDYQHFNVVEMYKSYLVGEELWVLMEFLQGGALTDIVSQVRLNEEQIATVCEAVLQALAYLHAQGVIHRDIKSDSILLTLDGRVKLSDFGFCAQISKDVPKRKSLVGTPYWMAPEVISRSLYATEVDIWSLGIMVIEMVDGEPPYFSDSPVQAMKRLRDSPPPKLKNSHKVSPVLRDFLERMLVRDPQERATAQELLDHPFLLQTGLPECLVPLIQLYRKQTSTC
Chain of TESK1 (Q15569 whole entry): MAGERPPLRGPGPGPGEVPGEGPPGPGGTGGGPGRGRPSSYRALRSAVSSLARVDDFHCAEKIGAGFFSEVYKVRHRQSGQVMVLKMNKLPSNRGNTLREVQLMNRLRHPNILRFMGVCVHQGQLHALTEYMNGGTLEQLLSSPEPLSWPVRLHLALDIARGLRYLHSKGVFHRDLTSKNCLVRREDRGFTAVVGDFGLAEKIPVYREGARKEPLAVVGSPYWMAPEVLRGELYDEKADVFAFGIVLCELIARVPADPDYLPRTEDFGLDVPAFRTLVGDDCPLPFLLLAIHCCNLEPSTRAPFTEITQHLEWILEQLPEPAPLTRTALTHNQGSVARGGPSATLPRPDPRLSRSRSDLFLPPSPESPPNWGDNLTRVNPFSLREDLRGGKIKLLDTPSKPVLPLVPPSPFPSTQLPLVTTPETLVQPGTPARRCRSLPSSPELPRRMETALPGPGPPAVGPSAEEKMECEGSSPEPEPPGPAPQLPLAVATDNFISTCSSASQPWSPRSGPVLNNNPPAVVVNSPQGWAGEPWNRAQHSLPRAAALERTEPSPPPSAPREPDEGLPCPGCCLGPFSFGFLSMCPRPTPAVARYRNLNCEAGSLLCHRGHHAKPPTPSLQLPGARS
T3 sequence (P29597 whole entry): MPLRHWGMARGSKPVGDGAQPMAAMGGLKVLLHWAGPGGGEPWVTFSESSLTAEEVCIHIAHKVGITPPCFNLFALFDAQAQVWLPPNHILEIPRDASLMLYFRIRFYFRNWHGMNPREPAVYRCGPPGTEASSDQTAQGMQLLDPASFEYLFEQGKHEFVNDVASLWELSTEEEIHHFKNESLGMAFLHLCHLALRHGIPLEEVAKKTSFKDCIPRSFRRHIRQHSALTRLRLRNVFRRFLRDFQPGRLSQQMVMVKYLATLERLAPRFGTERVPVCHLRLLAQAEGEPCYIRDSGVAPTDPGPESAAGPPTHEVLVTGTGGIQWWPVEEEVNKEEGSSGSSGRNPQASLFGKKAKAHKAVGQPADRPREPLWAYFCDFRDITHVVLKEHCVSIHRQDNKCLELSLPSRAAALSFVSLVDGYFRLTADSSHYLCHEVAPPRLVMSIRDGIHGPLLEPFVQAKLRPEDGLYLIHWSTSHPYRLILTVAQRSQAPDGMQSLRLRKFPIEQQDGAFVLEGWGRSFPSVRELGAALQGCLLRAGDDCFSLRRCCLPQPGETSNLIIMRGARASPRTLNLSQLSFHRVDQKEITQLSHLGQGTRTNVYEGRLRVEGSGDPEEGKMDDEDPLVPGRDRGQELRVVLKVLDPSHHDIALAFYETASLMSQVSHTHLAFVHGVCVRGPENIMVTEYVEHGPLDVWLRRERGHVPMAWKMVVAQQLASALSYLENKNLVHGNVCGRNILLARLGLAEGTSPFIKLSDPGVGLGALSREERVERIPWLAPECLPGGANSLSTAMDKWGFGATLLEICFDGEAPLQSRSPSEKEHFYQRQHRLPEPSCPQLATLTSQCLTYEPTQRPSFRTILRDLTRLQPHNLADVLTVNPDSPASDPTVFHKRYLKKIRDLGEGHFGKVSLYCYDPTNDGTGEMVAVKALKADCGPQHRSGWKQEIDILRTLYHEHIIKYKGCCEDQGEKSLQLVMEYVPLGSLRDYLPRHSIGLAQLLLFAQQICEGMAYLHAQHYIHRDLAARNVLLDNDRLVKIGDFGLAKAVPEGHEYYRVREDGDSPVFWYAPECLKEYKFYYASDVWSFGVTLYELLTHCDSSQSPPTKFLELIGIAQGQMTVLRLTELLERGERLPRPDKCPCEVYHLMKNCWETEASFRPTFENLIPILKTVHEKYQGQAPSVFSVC

SMILES: NC(=O)c1cccc2cn(-c3ccc([C@@H]4CCCNC4)cc3)nc12 [Niraparib]
percent of control binding at 10 µM [1, 12]: 71%
percent of control binding at 10 µM [2, 12]: 98%
percent of control binding at 10 µM [3, 12]: 79%
percent of control binding at 10 µM [4, 12]: 93%
percent of control binding at 10 µM [5, 12]: 92%
percent of control binding at 10 µM [6, 12]: 95%
percent of control binding at 10 µM [7, 12]: 37%
percent of control binding at 10 µM [8, 12]: 86%
percent of control binding at 10 µM [9, 12]: 95%
percent of control binding at 10 µM [10, 12]: 86%

percent of control binding at 10 µM [1, 13]: 89%
percent of control binding at 10 µM [11, 13]: 0.8%
percent of control binding at 10 µM [2, 13]: 86%
percent of control binding at 10 µM [3, 13]: 98%
percent of control binding at 10 µM [4, 13]: 96%
percent of control binding at 10 µM [5, 13]: 98%
percent of control binding at 10 µM [6, 13]: 68%
percent of control binding at 10 µM [7, 13]: 7.6%
percent of control binding at 10 µM [8, 13]: 100%
percent of control binding at 10 µM [9, 13]: 67%
percent of control binding at 10 µM [10, 13]: 100%
SMILES: CNCc1ccc(-c2[nH]c3cc(F)cc4c3c2CCNC4=O)cc1 [Rucaparib]

percent of control binding at 10 µM [1, 14]: 84%
percent of control binding at 10 µM [11, 14]: 91%
percent of control binding at 10 µM [2, 14]: 88%
percent of control binding at 10 µM [3, 14]: 90%
percent of control binding at 10 µM [4, 14]: 87%
percent of control binding at 10 µM [5, 14]: 100%
percent of control binding at 10 µM [6, 14]: 81%
percent of control binding at 10 µM [7, 14]: 79%
percent of control binding at 10 µM [8, 14]: 100%
percent of control binding at 10 µM [9, 14]: 87%
percent of control binding at 10 µM [10, 14]: 86%
SMILES: O=C(c1cc(Cc2n[nH]c(=O)c3ccccc23)ccc1F)N1CCN(C(=O)C2CC2)CC1 [Olaparib]

percent of control binding at 10 µM [1, 15]: 100%
percent of control binding at 10 µM [11, 15]: 73%
percent of control binding at 10 µM [2, 15]: 100%
percent of control binding at 10 µM [3, 15]: 99%
percent of control binding at 10 µM [4, 15]: 90%
percent of control binding at 10 µM [5, 15]: 90%
percent of control binding at 10 µM [6, 15]: 95%
percent of control binding at 10 µM [7, 15]: 84%
percent of control binding at 10 µM [8, 15]: 88%
percent of control binding at 10 µM [9, 15]: 100%
percent of control binding at 10 µM [10, 15]: 91%
SMILES: Cn1ncnc1[C@H]1c2n[nH]c(=O)c3cc(F)cc(c23)N[C@@H]1c1ccc(F)cc1 [Talazoparib]
